Assay results taken from PubChem BioAssay (NCI).
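1) Cells in 96-well plates. 2) Compound, 48 h, 5 concentrations. 3) Linear interpolation between surrounding doses. 4) Unreached endpoint = highest concentration. GI50 = concentration required for 50% inhibition of growth. At the TGI there is no net growth.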

Tests used:
Test in all cases: NCI-60 cell line screen, 48 h
HL-60(TB) leukemia = system: HL-60(TB) leukemia
COLO 205 colon = system: COLO 205 colon
HCT-15 colon = system: HCT-15 colon
SK-OV-3 ovarian = system: SK-OV-3 ovarian
KM12 colon = system: KM12 colon
HOP-92 NSCLC = system: HOP-92 NSCLC
HCT-116 colon = system: HCT-116 colon
RPMI-8226 leukemia = system: RPMI-8226 leukemia
IGROV1 ovarian = system: IGROV1 ovarian
HS 578T breast = system: HS 578T breast

Row | SMILES | TGI (HL-60(TB) leukemia) | TGI (COLO 205 colon) | TGI (HCT-15 colon) | TGI (SK-OV-3 ovarian) | TGI (KM12 colon) | TGI (HOP-92 NSCLC) | TGI (HCT-116 colon) | TGI (RPMI-8226 leukemia) | TGI (IGROV1 ovarian) | GI50 (COLO 205 colon) | GI50 (KM12 colon) | GI50 (HOP-92 NSCLC) | GI50 (HS 578T breast) | TGI (HS 578T breast) | GI50 (RPMI-8226 leukemia)
1 | Cc1c(/C=N/NC(=O)c2ccc(Cl)cc2)c(=O)n(-c2ccccc2)n1C | > 100 µM | > 100 µM | > 100 µM | > 100 µM | > 100 µM | > 100 µM | > 100 µM | > 100 µM | > 100 µM |  |  |  |  |  | 
2 | C/C(CC(=O)Nc1cccc(Cl)c1C)=N\NC(=O)c1ccncc1 | > 100 µM | > 100 µM |  | > 100 µM | > 100 µM | > 100 µM | > 100 µM | > 100 µM | > 100 µM |  |  |  |  |  | 
3 | CC(=O)O[C@H]1CCC2[C@@H]3CCC4Nc5[nH]ncc5C[C@]4(C)C3CC[C@@]21C (some centres undefined) | 42.5 µM | > 100 µM | > 100 µM | > 100 µM | > 100 µM |  | > 100 µM | > 100 µM | > 100 µM |  |  |  |  |  | 
4 | O=S(=O)(c1ccccc1)C1CN2OC1(S(=O)(=O)c1ccccc1)CC2c1ccc(Br)cc1 (centres undefined) | > 100 µM |  | > 100 µM | > 100 µM | > 100 µM | > 100 µM | > 100 µM | > 100 µM | > 100 µM |  |  |  |  |  | 
5 | COc1ncc(-c2ccc3ncnc(Nc4cccc(Cl)c4)c3c2)cc1NS(=O)(=O)C1CC1 |  | > 100 µM |  |  | > 100 µM | > 100 µM |  | > 100 µM |  | > 100 µM | 38.9 µM | 0.394 µM | 0.365 µM | > 100 µM | > 100 µM
6 | N#CC(C(=O)C(=O)Nc1ccc(Cl)cc1)c1ccccc1 (centres undefined) | > 100 µM | > 100 µM | > 100 µM | > 100 µM | > 100 µM | > 100 µM | > 100 µM | > 100 µM | > 100 µM |  |  |  |  |  | 
7 | O=[N+]([O-])c1ccc(N2N=C(c3ccc(NCc4nc5ccccc5[nH]4)cc3)CC2c2ccco2)cc1 (centres undefined) | 48.9 µM | 77.9 µM | 84.9 µM | > 100 µM | 41.4 µM | > 100 µM | 57.3 µM | 94.5 µM | > 100 µM |  |  |  |  |  | 
8 | CC(C)C(=O)NS(=O)(=O)c1ccccc1 | > 100 µM | > 100 µM |  | > 100 µM | > 100 µM | > 100 µM | > 100 µM | > 100 µM | > 100 µM |  |  |  |  |  | 
9 | c1ccc2nc3c(nc2c1)sc1ccccc13 | > 100 µM | > 100 µM | > 100 µM | 29.5 µM | > 100 µM |  | > 100 µM | > 100 µM | 51 µM |  |  |  |  | > 100 µM | 
10 | CN[C@@H](C)[C@@H](NC)c1ccccc1 |  | > 100 µM | > 100 µM | > 100 µM | > 100 µM | > 100 µM | > 100 µM | > 100 µM | > 100 µM |  |  |  |  |  | 
11 | COC(=O)/C=C/c1c(CC=C(C)C)ncn1C | 31.6 µM | > 100 µM | > 100 µM | > 100 µM | > 100 µM | > 100 µM | > 100 µM | > 100 µM | > 100 µM |  |  |  |  |  | 
12 | Cc1cc(NS(=O)(=O)c2ccc(Nc3c4ccccc4nc4c(C(=O)N5CCN(CCO)CC5)ccc(Cl)c34)cc2)no1 | > 100 µM | > 100 µM | > 100 µM | > 100 µM | > 100 µM | > 100 µM | > 100 µM | > 100 µM | > 100 µM |  |  |  |  |  | 
